ChEMBL document CHEMBL4393657, “Tetrazole hybrids and their antifungal activities” (2019)
≈ marks a conversion by molar mass, not a printed value. Each block holds one compound with its values, some of them ahead of it.

What was measured:
Format in all cases: functional
Aspergillus niger [1] = test: Antifungal activity against Aspergillus niger assessed as reduction in fungal cell growth incubated for 48 hrs by broth microdilution method
Candida albicans [2] = test: Antifungal activity against Candida albicans assessed as reduction in fungal cell growth incubated for 48 hrs by broth microdilution method
Aspergillus niger [3] = test: Antifungal activity against Aspergillus niger NCCS 1196 assessed as inhibition zone at 500 ug/ml by disk diffusion method; conditions: read-out: IZ
Candida albicans [4] = test: Antifungal activity against Candida albicans NCCS 3471 assessed as inhibition zone at 500 ug/ml by disk diffusion method; conditions: read-out: IZ
Candida albicans [5] = test: Antifungal activity against Candida albicans ATCC 885653 assessed as inhibition zone at 100 ug/ml incubated for 48 to 72 hrs by agar-diffusion method; conditions: read-out: IZ
Rhizopus arrhizus = test: Antifungal activity against Rhizopus arrhizus
Aspergillus niger [6] = test: Antifungal activity against Aspergillus niger
Mucor indicus = test: Antifungal activity against Mucor indicus
Aspergillus flavus [7] = test: Antifungal activity against Aspergillus flavus
Candida albicans [8] = test: Antifungal activity against Candida albicans
Candida albicans [9] = test: Antifungal activity against Candida albicans assessed as inhibition zone at 125 ug/ml by disk diffusion method; conditions: read-out: IZ
Candida albicans [10] = test: Antifungal activity against Candida albicans assessed as reduction in fungal cell growth incubated for 24 hrs by broth microdilution method
Aspergillus fumigatus = test: Antifungal activity against Aspergillus fumigatus assessed as inhibition zone at 25 ug/ml by disk diffusion method; conditions: read-out: IZ
Aspergillus flavus [11] = test: Antifungal activity against Aspergillus flavus assessed as inhibition zone at 25 ug/ml by disk diffusion method; conditions: read-out: IZ
Candida albicans [12] = test: Antifungal activity against Candida albicans assessed as inhibition zone at 25 ug/ml by disk diffusion method; conditions: read-out: IZ
Aspergillus niger [13] = test: Antifungal activity against Aspergillus niger assessed as inhibition zone at 25 ug/ml by disk diffusion method; conditions: read-out: IZ

MIC (Aspergillus niger [1]): 50 to 400 µg/mL (≈ 117 to 934 µM)
MIC (Candida albicans [2]): 50 to 400 µg/mL (≈ 117 to 934 µM)
Compound: O=[N+]([O-])c1cccc(C2c3ccc4ccccc4c3Oc3[nH]c(=S)n4nnnc4c32)c1 (stereo unspecified)

MIC (Aspergillus niger [1]): 50 to 400 µg/mL (≈ 120 to 957 µM)
MIC (Candida albicans [2]): 50 to 400 µg/mL (≈ 120 to 957 µM)
Compound: S=c1[nH]c2c(c3nnnn13)C(c1ccc(Cl)cc1)c1ccc3ccccc3c1O2 (stereo unspecified)

Compound: CC(=O)N1N=C(Cn2cc(-c3nn(-c4ccncc4)cc3-c3nnnn3-c3ccc(C(F)(F)F)cc3)c3cc(Cl)ccc32)OC1(C)c1ccc(C(F)(F)F)cc1 (stereo unspecified)
zone of inhibition at 500 µg/mL (Aspergillus niger [3]): 11 to 20 mm
zone of inhibition at 500 µg/mL (Candida albicans [4]): 11 to 20 mm

Compound: O=C(CSc1nc2ccccc2c2nnnn12)c1ccccc1
zone of inhibition at 100 µg/mL (Candida albicans [5]): 6 to 22 mm

MIC (Rhizopus arrhizus): 6.25 to 100 µg/mL (≈ 11.7 to 188 µM)
MIC (Aspergillus niger [6]): 6.25 to 100 µg/mL (≈ 11.7 to 188 µM)
MIC (Mucor indicus): 6.25 to 100 µg/mL (≈ 11.7 to 188 µM)
MIC (Aspergillus flavus [7]): 6.25 to 100 µg/mL (≈ 11.7 to 188 µM)
MIC (Candida albicans [8]): 6.25 to 100 µg/mL (≈ 11.7 to 188 µM)
Compound: Cc1ccc(-n2nnnc2C(=O)CN2CCN(c3nc4c(cc3F)c(=O)c(C(=O)O)cn4C3CC3)CC2)cc1

MIC (Rhizopus arrhizus): 6.25 to 100 µg/mL (≈ 11.4 to 182 µM)
MIC (Aspergillus niger [6]): 6.25 to 100 µg/mL (≈ 11.4 to 182 µM)
MIC (Mucor indicus): 6.25 to 100 µg/mL (≈ 11.4 to 182 µM)
MIC (Aspergillus flavus [7]): 6.25 to 100 µg/mL (≈ 11.4 to 182 µM)
MIC (Candida albicans [8]): 6.25 to 100 µg/mL (≈ 11.4 to 182 µM)
Compound: COc1ccc(-n2nnnc2C(=O)CN2CCN(c3nc4c(cc3F)c(=O)c(C(=O)O)cn4C3CC3)CC2)cc1

Compound: CC(=O)N1N=C(Cn2cc(-c3nn(-c4ccncc4)cc3-c3nnnn3-c3ccc(C(F)(F)F)cc3)c3cc(Cl)ccc32)OC1(C)c1ccc(Br)cc1 (stereo unspecified)
zone of inhibition at 500 µg/mL (Aspergillus niger [3]): 11 to 20 mm
zone of inhibition at 500 µg/mL (Candida albicans [4]): 11 to 20 mm

MIC (Rhizopus arrhizus): 6.25 to 100 µg/mL (≈ 11.1 to 177 µM)
MIC (Aspergillus niger [6]): 6.25 µg/mL (≈ 11.1 µM)
MIC (Mucor indicus): 6.25 to 100 µg/mL (≈ 11.1 to 177 µM)
MIC (Aspergillus flavus [7]): 6.25 to 100 µg/mL (≈ 11.1 to 177 µM)
MIC (Candida albicans [8]): 6.25 to 100 µg/mL (≈ 11.1 to 177 µM)
Compound: O=C(O)c1cn(C2CC2)c2nc(N3CCN(CC(=O)c4nnnn4-c4ccc([N+](=O)[O-])cc4)CC3)c(F)cc2c1=O

Compound: COc1ccc(C2(C)OC(Cn3cc(-c4nn(-c5ccncc5)cc4-c4nnnn4-c4ccc(C(F)(F)F)cc4)c4cc(Cl)ccc43)=NN2C(C)=O)cc1 (stereo unspecified)
zone of inhibition at 500 µg/mL (Aspergillus niger [3]): 11 to 20 mm
zone of inhibition at 500 µg/mL (Candida albicans [4]): 11 to 20 mm

MIC (Rhizopus arrhizus): 6.25 to 100 µg/mL (≈ 12.1 to 193 µM)
MIC (Aspergillus niger [6]): 6.25 to 100 µg/mL (≈ 12.1 to 193 µM)
MIC (Mucor indicus): 6.25 to 100 µg/mL (≈ 12.1 to 193 µM)
MIC (Aspergillus flavus [7]): 6.25 to 100 µg/mL (≈ 12.1 to 193 µM)
MIC (Candida albicans [8]): 6.25 to 100 µg/mL (≈ 12.1 to 193 µM)
Compound: O=C(O)c1cn(C2CC2)c2nc(N3CCN(CC(=O)c4nnnn4-c4ccccc4)CC3)c(F)cc2c1=O

Compound: Cc1ccc(/N=C/c2cc3cc(-c4nc5ccccc5[nH]4)ccc3n3nnnc23)cc1
zone of inhibition at 125 µg/mL (Candida albicans [9]): 7 to 12 mm

MIC (Candida albicans [10]): < 0.48 µg/mL
Compound: C[C@@H]1[C@H](O)[C@@H](C)/C=C/C=C/C=C/C=C/C=C/C=C/C=C/[C@H](O[C@@H]2O[C@H](C)[C@@H](O)[C@H](N)[C@@H]2O)C[C@@H]2O[C@](O)(C[C@@H](O)C[C@@H](O)[C@H](O)CC[C@@H](O)C[C@@H](O)CC(=O)O[C@H]1C)C[C@H](O)[C@H]2C(=O)O [AMPHOTERICIN B]

Compound: O=[N+]([O-])c1ccc(OCc2cn(Cc3ccc(-c4ccccc4-c4nnn[nH]4)cc3)nn2)cc1
zone of inhibition at 25 µg/mL (Aspergillus fumigatus): 11 to 18 mm
zone of inhibition at 25 µg/mL (Aspergillus flavus [11]): 11 to 18 mm
zone of inhibition at 25 µg/mL (Candida albicans [12]): 11 to 18 mm
zone of inhibition at 25 µg/mL (Aspergillus niger [13]): 11 to 18 mm

Compound: CC(=O)N1N=C(Cn2cc(-c3nn(-c4ccncc4)cc3-c3nnnn3-c3ccc(C(F)(F)F)cc3)c3cc(Cl)ccc32)OC1(C)c1ccc(Cl)cc1 (stereo unspecified)
zone of inhibition at 500 µg/mL (Aspergillus niger [3]): 11 to 20 mm
zone of inhibition at 500 µg/mL (Candida albicans [4]): 11 to 20 mm

Compound: NCCSc1nc2ccccc2c2nnnn12
zone of inhibition at 100 µg/mL (Candida albicans [5]): 6 to 22 mm

Compound: Cc1ccc(C(=O)CSc2nc3ccccc3c3nnnn23)cc1
zone of inhibition at 100 µg/mL (Candida albicans [5]): 6 to 22 mm

Compound: Cc1cccc(OCc2cn(Cc3ccc(-c4ccccc4-c4nnn[nH]4)cc3)nn2)c1
zone of inhibition at 25 µg/mL (Aspergillus fumigatus): 11 to 18 mm
zone of inhibition at 25 µg/mL (Aspergillus flavus [11]): 11 to 18 mm
zone of inhibition at 25 µg/mL (Candida albicans [12]): 11 to 18 mm
zone of inhibition at 25 µg/mL (Aspergillus niger [13]): 11 to 18 mm

Compound: Oc1ccc(/N=C/c2cc3cc(-c4nc5ccccc5[nH]4)ccc3n3nnnc23)cc1
zone of inhibition at 125 µg/mL (Candida albicans [9]): 7 to 12 mm

Compound: CNCCSc1nc2ccccc2c2nnnn12
zone of inhibition at 100 µg/mL (Candida albicans [5]): 6 to 22 mm

Compound: Clc1ccccc1OCc1cn(Cc2ccc(-c3ccccc3-c3nnn[nH]3)cc2)nn1
zone of inhibition at 25 µg/mL (Aspergillus fumigatus): 11 to 18 mm
zone of inhibition at 25 µg/mL (Aspergillus flavus [11]): 11 to 18 mm
zone of inhibition at 25 µg/mL (Candida albicans [12]): 11 to 18 mm
zone of inhibition at 25 µg/mL (Aspergillus niger [13]): 11 to 18 mm
